{
  "source": "patent US9101634B2",
  "about": "“Application of 2, 3-dihydro-3-hydroxymethyl-6-amino-[1,4]-benzoxazine in preparation of drugs inducing embryonic stem cells to differentiate to vascular endothelial cells” (SHANDONG UNIVERSITY, priority 2010, dated 2015)",
  "key": {"[1]": {"test_system": "vascular endothelial cell marker Flk-1 in embryonic stem cells", "assay": "Detection of vascular endothelial cell marker Flk-1 (immunohistochemistry, laser scanning confocal microscopy)", "type": "cell-based, mouse", "conditions": "induction for 10 days", "method": "The embryonic stem cells which were induced with 2,3-dihydro-3-hydroxymethyl-6-amino-[1,4]-benzoxazine with the concentration of 0.5 μM˜40 μM for 5 days and 10 days were evenly grown in 48-well plate and cultured for 24 hours in CO2 incubation chamber at 37° C., after the cells adhered on the wall, immunohistochemistry and laser scanning confocal microscopy were used for observing the expression of endothelial cell markers—Flk-1 The normal group was set: the group was cultured in under the culture condition of differentiation culture medium; solvent control group: the group was cultured after DMSO was added under the culture condition of differentiation culture medium; experimental group: the group was cultured after 2,3-dihydro-3-hydroxymethyl-6-amino-[1,4]-benzoxazine with the concentration of 0.5 μM˜40 μM was added under the culture condition of differentiation culture medium.\nThe embryonic stem cells were evenly grown in a 48-well plate and cultured for 24 hours with DMEM (high glucose) containing leukemia inhibitory factor, L-glutamine, streptomycin, β-mercaptoethanol, non-essential amino acids, nucleotides and 15% FBS, the waste liquid was discarded after the cells adhered on the wall, and the cells were cleaned with 1×PBS. The normal group was set: the group was cultured under the culture condition that leukemia inhibitory factor was removed; solvent control group: the group was cultured after DMSO was added under the culture condition that leukemia inhibitory factor was removed; experimental group: the group was cultured after 2,3-dihydro-3-hydroxymethyl-6-amino-[1,4]-benzoxazine with the concentration of 0.5 μM, 1 μM, 5 μM, 10 μM, 20 μM, 30 μM and 40 μM was added under the culture condition that leukemia inhibitory factor was removed. The culture conditions: 37° C., CO2 incubator box for cultivation."}, "[2]": {"test_system": "embryonic stem cells", "assay": "Detection of in vitro vascularization on Matrigel", "type": "cell-based, mouse", "conditions": "cells induced for ten days", "method": "The embryonic stem cells after induction for ten days were seeded in 24-well cell culture plate paved with Matrigel in advance, the detection culture system was replaced for the cells and placed at 37° C., the cells were cultured at CO2 incubator for 4 hours to 72 hours, and the vascularization conditions were regularly observed. The normal group was set: embryonic stem cells which were cultured for ten days under the culture conditions of differentiation culture medium; solvent control group: embryonic stem cells which were cultured for ten days after DMSO was added under the culture condition of differentiation culture medium. Experimental group: embryonic stem cells which were cultured for ten days after 2,3-dihydro-3-hydroxymethyl-6-amino-[1,4]-benzoxazine was added under the culture condition of differentiation culture medium.\nThe embryonic stem cells were evenly grown in a 24-well plate according to the density of 2×10^4 cells/well and cultured for 24 hours with DMEM (high glucose) containing leukemia inhibitory factor, L-glutamine, streptomycin, β-mercaptoethanol, non-essential amino acids, nucleotides and 15% FBS, the waste liquid was discarded after the cells adhered on the wall, and the cells were cleaned with 1×PBS. […]"}, "[3]": {"test_system": "vascular endothelial marker CD31 in embryonic stem cells", "assay": "Detection of vascular endothelial cell marker CD31 (Western blot)", "type": "cell-based, mouse", "conditions": "induction for 10 days", "method": "The embryonic stem cells induced by 2,3-dihydro-3-hydroxymethyl-6-amino-[1,4]-benzoxazine with the concentration of 0.5 μM˜40 μM for ten days were cracked, and total cellular protein was distilled. The solvent control group was set: the group was cultured after DMSO was added under the culture condition of differentiation culture medium; experimental group: the group was cultured after 2,3-dihydro-3-(hydroxymethyl)-6-Amino-[1,4]-benzoxazine with the concentration of 0.5 μM˜40 μM under the culture condition of differentiation culture medium. The extracted embryonic stem cells were used for Western blot experiment to detect the expression of vascular endothelial marker CD31.\nThe embryonic stem cells were evenly grown in a 6-well plate according to the density of 2×10^4 cells/well, and cultured for 24 hours with DMEM (high glucose) containing leukemia inhibitory factor, L-glutamine, streptomycin, β-mercaptoethanol, non-essential amino acids, nucleotides and 15% FBS, the waste liquid was discarded after the cells adhered on the wall, and the cells were cleaned with 1×PBS. The normal group was set: the group was cultured under the culture condition that leukemia inhibitory factor was removed; solvent control group: the group was cultured after DMSO was added under the culture condition that leukemia inhibitory factor was removed; experimental group: the group was cultured after 2,3-dihydro-3-hydroxymethyl-6-amino-[1,4]-benzoxazine with the concentration of 0.5 μM, 1 μM, 5 μM, 10 μM, 20 μM, 30 μM and 40 μM was added under the culture condition that leukemia inhibitory factor was removed. The culture conditions: 37° C., CO2 incubator box for cultivation. The culture medium should be replaced everyday, and the cells should be continuously cultured for ten days. The total protein of each group of cells was distilled with cell lysate. The protein samples were denatured for 5 min at 100° C., glue was removed then, the protein was transferred on the PVDF film after completion, the PBS/t solution containing 5% skimmed milk powder was used for sealing for one hour at room temperature. The PBS/t solution containing 3% bovine serum almbumin was used for diluting the primary anti-body (1:5000), and incubated overnight with the PVDF film containing target protein at 4° C. PBS/t was used for dipping the film twice 5 min each time. PBS was used for diluting the secondary antibody (1:5000) and the cells were incubated for one hour at room temperature, the film was dipped with PSB for three times and 5 min each time. ECL chromogenic reagent was evenly coated on the PVDF film containing target protein ad reacted for five minutes, excessive Chromogenic reagent was removed, and the cells were placed together with the film in a dark box for five minutes to finish film colour development."}, "[4]": {"test_system": "embryonic stem cells", "assay": "Function detection of phagocytosis of Dil-Ac-LDL", "type": "cell-based, mouse", "conditions": "cells induced for ten days, six hours with Dil-Ac-LDL", "method": "The embryonic stem cells after induction for ten days were seeded in 24-well paved with gelatin, placed at 37° C., and cultured in CO2 incubator. After the cells adhered on the wall, the Dil-Ac-LDL diluted with medium culture was added into the culture plates, placed at 37° C., and cultured in CO2 incubator for six hours. The normal group was set: embryonic stem cells which were cultured for ten days under the culture condition of differentiation culture medium; Solvent control group: the embryonic stem cells which were cultured for ten days after DMSO was added under the culture condition of differentiation culture medium; experimental group: the embryonic stem cells which were cultured for ten days after 2,3-dihydro-3-hydroxy methyl-6-amino-[1,4]-benzoxazine with the concentration of 0.5 μM˜40 μM was added under the culture condition of differentiation culture medium. […]\nThe embryonic stem cells were evenly grown in a 24-well plate according to the density of 2×10^4 cells/well and cultured for 24 hours with DMEM (high glucose) containing leukemia inhibitory factor, L-glutamine, streptomycin, β-mercaptoethanol, non-essential amino acids, nucleotides and 15% FBS, the waste liquid was discarded after the cells adhered on the wall, and the cells were cleaned with 1×PBS. […] The conditions of phagocytosing Dil-Ac-LDL were detected with laser confocal microscopy."}, "[5]": {"test_system": "mouse embryonic stem cells", "assay": "Influence on mouse embryonic stem cell morphology (inverted phase contrast microscope)", "type": "cell-based", "conditions": "ten days", "method": "The embryonic stem cells were evenly grown in a 24-well plate, a normal group was set after the cells adhered on the wall: the normal group was cultured under the condition of differentiation culture medium (after removal of leukemia inhibitory factor from normal culture medium); solvent control group: the group was cultured after DMSO was added under the culture condition of differentiation culture medium; experimental group: the group was cultured after 2,3-dihydro-3-hydroxymethyl-6-amino-[1,4]-benzoxazine with the concentration of 0.5 μM˜40 μM was added under the culture condition of differentiation culture medium. The culture conditions: 37° C., CO2 incubator box for cultivation. The culture medium should be replaced everyday in a timing mode, the morphological changes were observed under an inverted phase contrast microscope until the tenth day.\nThe embryonic stem cells were evenly grown in a 24-well plate according to density of 2×10^4 cells/well, DMEM (high glucose) containing leukemia inhibitory factor, L-glutamine, streptomycin, β-mercaptoethanol, non-essential amino acids, nucleotides and 15% […] was used for culturing for 24 hours, the waste liquid was discarded after the cells adhered on the wall, and the cells were cleaned with 1×PBS. A normal group was set: the normal group was cultured under the culture condition that leukemia inhibitory factor was removed; solvent control group: the group was cultured after DMSO was added under the culture condition that leukemia inhibitory factor was removed; experimental group: the group was cultured after 2,3-dihydro-3-hydroxymethyl-6-amino-[1,4]-benzoxazine with the concentration of 0.5 μM, 1 μM, 5 μM, 10 μM, 20 μM, 30 μM and 40 μM was added under the culture condition that leukemia inhibitory factor was removed. The culture conditions: 37° C., CO2 incubator box for cultivation. The culture medium should be replaced everyday in a timing mode, and the cells were continuously cultured for ten days and then were observed under an inverted phase contrast microscope."}, "[6]": {"test_system": "mouse embryonic stem cells", "assay": "Induction of mouse embryonic stem cells to differentiate to vascular endothelial cells (overall conclusion)", "type": "cell-based", "conditions": "for differentiation of mouse embryonic stem cells to vascular endothelial cells: five to ten days, differentiation culture medium", "text": "Cell biology and molecular biology methods were adopted to study and validate the function of the 2,3-dihydro-3-hydroxymethyl-6-amino-[1,4]-benzoxazine of the invention to induce embryonic stem cells to differentiate to vascular endothelial cells with the following experiments."}, "[7]": {"conditions": "10 μM, listed as 2 3-dihydro-3-hydroxymethyl-6-amino-[1,4]-benzoxazine"}},
  "note": "Entries after “also recorded” stand apart in the source; their conditions may differ.",
  "data": [
    {"smiles": "Nc1ccc2c(c1)NC(CO)CO2", "note": "(centres unmarked) [2,3-dihydro-3-hydroxymethyl-6-amino-[1,4]-benzoxazine]", "values": [
      {"measurement": "expression of vascular endothelial cell marker Flk-1", "setting": "[1]; 1 μM˜20 μM", "result": "increased"},
      {"measurement": "expression of vascular endothelial cell marker Flk-1", "setting": "[1]; 10 μM", "result": "more obvious"},
      {"measurement": "expression of vascular endothelial cell marker Flk-1", "setting": "[1]; [7]", "result": "stronger Flk-1 expression"},
      {"measurement": "formation of vessel-like structures on Matrigel", "setting": "[2]; 10 μM", "result": "particularly prominent vessel-like structures; also recorded: prominently form blood vessels in vitro; also recorded: prominently form blood vessels on Matrigel"},
      {"measurement": "formation of vessel-like structures on Matrigel", "setting": "[2]; 1˜20 μM", "result": "form varying degrees of cavity-like vessel-like structures"},
      {"measurement": "expression of vascular endothelial cell marker CD31", "setting": "[3]; 1 μM˜20 μM, versus solvent control, listed as 2 3-dihydro-3-hydroxymethyl-6-amino-[1,4]-benzoxazine", "result": "increased"},
      {"measurement": "expression of vascular endothelial cell marker CD31", "setting": "[3]; 1 μM˜20 μM, versus solvent control, listed as 2,3-dihydro-3-(hydroxymethyl)-6-amino-[1,4]-benzoxazine", "result": "increased expression of CD31"},
      {"measurement": "expression of vascular endothelial cell marker CD31", "setting": "[3]; 10 μM", "result": "more significant"},
      {"measurement": "expression of vascular endothelial cell marker CD31", "setting": "[3]; [7]", "result": "stronger CD31 expression"},
      {"measurement": "phagocytosis of Dil-Ac-LDL", "setting": "[4]; 1 μM˜20 μM", "result": "can phagocytose Dil-Ac-LDL"},
      {"measurement": "phagocytosis of Dil-Ac-LDL", "setting": "[4]; 10 μM", "result": "particularly evident; also recorded: prominent effect of phagocytosing Dil-Ac-LDL; also recorded: prominently phagocytose Dil-Ac-LDL"},
      {"measurement": "cell morphology change to vascular endothelial cell form", "setting": "[5]; 10 μM, differentiation culture medium without leukemia inhibitory factor", "result": "significant changes; also recorded: prominently prompt the embryonic stem cells to show the vascular endothelial form"},
      {"measurement": "cell morphology change versus normal and solvent control groups", "setting": "[5]; 1˜20 μM, differentiation culture medium without leukemia inhibitory factor", "result": "changed compared with the cell morphology of the control group; also recorded: changed compared with the cell form of the control group"},
      {"measurement": "cell form changes of other treatment groups", "setting": "[5]; other concentrations of the 0.5 μM˜40 μM range (outside 1˜20 μM)", "result": "relatively weak"},
      {"measurement": "optimal concentration for inducing differentiation to vascular endothelial cells", "setting": "[6]", "result": 10, "unit": "µM"},
      {"measurement": "differentiation of mouse embryonic stem cells to vascular endothelial cells", "setting": "[6]; 1 μM˜20 μM", "result": "prominently promote differentiation of mouse embryonic stem cells to vascular endothelial cells"},
      {"measurement": "differentiation of mouse embryonic stem cells to vascular endothelial cells", "setting": "[6]; 10 μM", "result": "particularly prominent"}
    ]}
  ]
}
